Reference: US12612395B2, “Rocaglate derivatives and uses thereof” (TRUSTEES OF BOSTON UNIVERSITY, priority 2023, dated 2026)

Tested on: BT112 CSCs
Experiment: Dose-response killing of CSCs in BT112 glioblastoma cell line
Format: cell-based
Settings: Homo sapiens, read-out: CSC EC50
Description: Cell Culture: Glioblastoma stem cell lines GBM0308, BT145, and BT112 were cultured in neurobasal (NBE medium) containing N-2 and B-27 supplements, EGF, bFGF, L-glutamine, and Penicillin-Streptomycin), as described previously.^19 Adherent GBM cells were cultured in serum-containing DMEM media (Invitrogen) supplemented with 10% fetal bovine serum (Corning Cellgro™). Cells were incubated at 37° C. and 5% CO2 to allow neurosphere formation. For seeding and subculturing, the neurospheres were gently trypsinized with 0.025% trypsin to form a single-cell suspension.
Dose-Response Testing in GBM Cells: Briefly, on day 1, cells were seeded in triplicate. For CSCs, 1500 cells/well were plated in a low attachment 96-well plate with NBE media and incubated for 3 days at 37° C. and 5% CO2 to allow the formation of neurospheres. For non-CSCs, 3000 cells/well were plated in a 96-well plate with DMEM media supplemented with 10% FBS. Similarly, the assay plates were also incubated for the same duration. Compound treatments started on day 4. […] After incubation, plates were read by Celigo imaging cytometer using an inbuilt Celigo application; Cell Viability (Dead+Total). For the viability measurement, the total number of neurospheres/cells and dead neurospheres/cells in each well were counted by the cytometer. […]

COc1cc(OC)c2c(c1)O[C@@]1(c3ccc(Br)cc3)[C@H](c3ccccc3)[C@@H](C(=O)NS(=O)(=O)N(C)C)[C@@H](O)[C@@]21O [(−)-20, (1R,2R,3S,3aR,8bS)-3a-(4-bromophenyl)-N—(N,N-dimethylsulfamoyl)-1,8b-dihydroxy-6,8-dimethoxy-3-phenyl-2,3,3a,8b-tetrahydro-1H-cyclopenta[b]benzofuran-2-carboxamide]
EC50: 34 nM
